According to patent publication US20210238201A1, “ANTIMICROBIAL COMPOUNDS AND COMPOSITIONS” (AGROFRESH INC., priority 2020, published 2021):
Converted amounts (≈) assume the structure as drawn.

What was measured:
[1] = tested on: Penicillium expansum; experiment: in vitro inhibition assay for volatile antimicrobial compounds (headspace, PDA agar); assay type: cell-based; conditions: volatile headspace exposure
Description: [The procedure below names another organism; the source lists this organism under the same test.] (§1) 12-well (6.5 ml volume per well) microtiter plates are used for the in vitro inhibition assay for volatile antimicrobial compounds. A 3-ml volume of full-strength Potato Dextrose Agar (PDA) is added to each well. After cooling, 1 μL of 1×10^5 spores per ml Botrytis cinerea (ATCC #204446) spore suspension is spot pipetted to the agar in the center of the well. Whatman #1 filter disks (1.5 cm; Cat. No. 1001-0155) are placed on the underside of a polyethylene PCR plate sealing film. For determination of the minimum inhibitory concentration (MIC), test compounds are diluted in acetone, in duplicate, and 50 μli of the compound solution is added to disks at concentrations that can vary from 0.001 mg/l to 1142.9 mg/l. The acetone is permitted to evaporate for 5 minutes. The headspace around the Botrytis cinerea inoculum is then sealed inside the well by the film with the adhering disk containing the antimicrobial, anti-decay, anti-spoilage, or pathogen control agent. Plates are inverted to prevent any possibility of the chemical from flaking from the disk and falling onto the inoculated agar.

[2] = tested on: Botrytis cinerea (ATCC #204446); experiment: as above; assay type: cell-based; conditions: for MIC / EC50: Botrytis cinerea, ATCC204446, 72 h; for EC50: growth relative to control
Description: as §1

[3] = tested on: Alternaria alternata; experiment: as above; assay type: cell-based; conditions: volatile headspace exposure
Description: [The procedure below names another organism; the source lists this organism under the same test.] as §1

[4] = tested on: Escherichia coli (ATCC #25922); experiment: in vitro inhibition assay for volatile antimicrobial compounds against bacteria (LB agar); assay type: cell-based; conditions: volatile headspace exposure, 2 days at 23° C.
Description: 12-well (6.5 ml volume per well) microtiter plates are used for the in vitro inhibition assay for volatile antimicrobial compounds. A 3-ml volume of full-strength L^B Agar is added to each well. After cooling, 15 μL of Escherichia coli (ATCC #25922) adjusted to an optical density of 0.02 to 0.035, and further diluted 1/10 is pipetted to the center of the agar. The plate is tilted to distribute bacteria uniformly. Whatman #1 filter disks (1.5 cm; Cat. No. 1001-0155) are placed on the underside of a polyethylene PCR plate sealing film. […] The acetone is permitted to evaporate for 5 minutes. The headspace around the Escherichia coli inoculum is then sealed inside the well by the film with the adhering disk containing the antimicrobial, anti-decay, anti-spoilage, or pathogen control agent. Plates are inverted, placed over the treated disks and sealed to prevent any of the chemical from flaking from the disk and falling onto the inoculated agar. After 2 days of incubation at 23° C., cultures were evaluated for colony growth relative to control.

[5] = tested on: Botrytis cinerea (ATCC #204446); experiment: Grape in vivo analysis, volatile bioassay on inoculated green table grape; design: species or system Botrytis cinerea on green table grape; conditions: for antimicrobial activity against Botrytis cinerea in grape in vivo analysis: stem wound inoculated, 3 days treatment at 21° C. plus 3 days evaluation; for phytotoxicity in grape in vivo analysis: symptoms of phytotoxicity evaluated daily
Description: In order to assess the in vivo activity of volatile antimicrobial compounds, a volatile bioassay is developed using green table grape. Fruit are removed from the rachis, and 16 to 20 fruit are placed inside a 1 dry pint clamshell (Produce Packaging; Product #03231004KZ) with the stem wound facing upwards. The grapes are inoculated by pipetting 20 μL of 1×10^6 spore per ml Botrytis cinerea (ATCC #204446) into the stem wound. The clamshell is placed inside a 2.55 L plastic container (Snapware; Model #1098421). A Whatman #1 filter paper (4.25 cm; Cat. No. 1001-042) is placed on a watchglass, which is then placed on top of the closed clamshell lid. For determination of the MIC, test compounds are diluted in acetone, and 400 μl of the solution is added to disks, in duplicate, in a dose dependent manner (for example 0.4 to 50 mg/liter). The acetone is permitted to evaporate for 5 minutes. The plastic containers are then closed and placed for 3 days at 21° C. Clamshells are then removed from the treatment plastic container and placed into separate larger secondary containers for a further 3 days of evaluation at 21° C. During these 3 days, fruit are evaluated daily for incidence and severity of disease and symptoms of phytotoxicity.

[6] = tested on: Botrytis cinerea (ATCC #204446); experiment: Strawberry in vivo analysis, volatile bioassay on wound-inoculated strawberry; design: species or system Botrytis cinerea on strawberry; conditions: for phytotoxicity in strawberry in vivo analysis: symptoms of phytotoxicity evaluated daily; for antimicrobial activity against Botrytis cinerea in strawberry in vivo analysis: wound-inoculated, 3 days treatment at 21° C. plus 3 days evaluation
Description: In order to assess the in vivo activity of volatile antimicrobial compounds, a volatile bioassay is developed using strawberry. Fruit (6 to 8) are placed inside a 1 lb clamshell (Packaging Direct Inc.; Product #4341699) with the calyx facing downward. The strawberry fruit are wound-inoculated by pipetting 20 μL of 1×10^6 spore per ml Botrytis cinerea (ATCC #204446) into a wound approximately 5 mm deep and 2.6 mm in width. The clamshell is placed inside a 2.55 L plastic container (Snapware; Model #1098421). A Whatman #1 filter paper (4.25 cm; Cat. No. 1001-042) is placed on a watchglass, which is then placed on top of the closed clamshell lid. For determination of the MIC, test compounds are diluted in acetone, and 400 μl of the solution is added to disks, in duplicate, in a dose dependent manner (for example 0.4 to 50 mg/liter). The acetone is permitted to evaporate for 5 minutes. The plastic containers are then closed and placed for 3 days at 21° C. Clamshells are then removed from the treatment plastic container and placed into separate larger secondary containers for a further 3 days of evaluation at 21° C. During these 3 days, fruit are evaluated daily for incidence and severity of disease and symptoms of phytotoxicity.

[7] = tested on: Monilinia fructicola; experiment: in vitro inhibition assay for volatile antimicrobial compounds (headspace, PDA agar); assay type: cell-based; conditions: volatile headspace exposure
Description: [The procedure below names another organism; the source lists this organism under the same test.] as §1

[8] = volatile headspace exposure, 3 days at 23° C.

| SMILES | EC50 [1] [µg/mL] | MIC [1] [µg/mL] | MIC [2, 8] [µg/mL] | EC50 [2, 8] [µg/mL] | other results |
| --- | --- | --- | --- | --- | --- |
| Fc1ccc2c(c1)COB2NCCNB1OCc2cc(F)ccc21 [Compound 17, N^1,N^2-bis(5-fluorobenzo[c][1,2]oxaborol-1(3H)-yl)ethane-1,2-diamine] | 1.8 (≈ 5.49 µM) | 17.9 (≈ 54.6 µM) | 1.1 (≈ 3.35 µM) | 0.4 (≈ 1.22 µM) | – |
| Fc1ccc2c(c1)COB2OCc1ccc(COB2OCc3cc(F)ccc32)cc1 [Compound 14, 1,4-bis(((5-fluorobenzo[c][1,2]oxaborol-1(3H)-yl)oxy)methyl)benzene] | 1.7 (≈ 4.19 µM) | 17.9 (≈ 44.1 µM) | 1.1 (≈ 2.71 µM) | 0.4 (≈ 0.985 µM) | – |
| Clc1ccc2c(c1)COB2OCCOB1OCc2cc(Cl)ccc21 [Compound 19, 1,2-bis((5-chlorobenzo[c][1,2]oxaborol-1(3H)-yl)oxy)ethane] | – | – | – | – | MIC Botrytis cinerea [2, 8]: 0 mg/L |
| CC(C)(OB1OCc2cc(F)ccc21)C(C)(C)OB1OCc2cc(F)ccc21 [Compound 9, 1,1′-((2,3-dimethylbutane-2,3-diyl)bis(oxy))bis(5-fluoro-1,3-dihydrobenzo[c][1,2]oxaborole)] | 0.8 (≈ 2.07 µM) | 4.5 (≈ 11.7 µM) | 1.1 (≈ 2.85 µM) | 0.3 (≈ 0.777 µM) | EC50 [3]: 0.3 µg/mL (≈ 0.777 µM); MIC [3]: 2.2 µg/mL (≈ 5.7 µM); antimicrobial activity against Escherichia coli (colony growth relative to control) [4]: good antimicrobial activity; antimicrobial activity against Botrytis cinerea in grape in vivo analysis [5]: good antimicrobial activity; phytotoxicity in grape in vivo analysis [5]: no phytotoxicity; phytotoxicity in strawberry in vivo analysis [6]: no phytotoxicity; antimicrobial activity against Botrytis cinerea in strawberry in vivo analysis [6]: good antimicrobial activity |
| c1ccc2c(c1)COB2OCCNCCNCCOB1OCc2ccccc21 [Compound 4, N^1,N^2-bis(2-(benzo[c][1,2]oxaborol-1(3H)-yloxy)ethyl)ethane-1,2-diamine] | 2 (≈ 5.26 µM) | 8.9 (≈ 23.4 µM) | 1.1 (≈ 2.89 µM) | 0.4 (≈ 1.05 µM) | – |
| OC(COB1OCc2cc(F)ccc21)COB1OCc2cc(F)ccc21 [Compound 12, 1,3-bis((5-fluorobenzo[c][1,2]oxaborol-1(3H)-yl)oxy)propan-2-ol] | 1.1 (≈ 3.06 µM) | 8.9 (≈ 24.7 µM) | 0.6 (≈ 1.67 µM) | 0.2 (≈ 0.556 µM) | – |
| Fc1ccc2c(c1)COB2OCCNCCNCCOB1OCc2cc(F)ccc21 [Compound 10, N^1,N^2-bis(2-((5-fluorobenzo[c][1,2]oxaborol-1(3H)-yl)oxy)ethyl)ethane-1,2-diamine] | 0.9 (≈ 2.16 µM) | 8.9 (≈ 21.4 µM) | 0.6 (≈ 1.44 µM) | 0.2 (≈ 0.481 µM) | – |
| Fc1cc2c(cc1F)B(OCCOB1OCc3cc(F)c(F)cc31)OC2 [Compound 18, 1,2-bis((5,6-difluorobenzo[c][1,2]oxaborol-1(3H)-yl)oxy)ethane] | > 35.7 | > 35.7 | 9 (≈ 24.6 µM) | 3 (≈ 8.2 µM) | – |
| CC(COB1OCc2cc(F)ccc21)OB1OCc2cc(F)ccc21 (stereo not shown) [Compound 11, 1,1′-(propane-1,2-diylbis(oxy))bis(5-fluoro-1,3-dihydrobenzo[c][1,2]oxaborole)] | < 0.6 | 8.9 (≈ 25.9 µM) | 0.6 (≈ 1.74 µM) | 0.2 (≈ 0.582 µM) | EC50 [7]: 0.2 µg/mL (≈ 0.582 µM); EC50 [3]: 0.31 µg/mL (≈ 0.901 µM); MIC [3]: 1.1 µg/mL (≈ 3.2 µM) |
| CC(C)(OB1OCc2ccccc21)C(C)(C)OB1OCc2ccccc21 [Compound 3, 1,1′-((2,3-dimethylbutane-2,3-diyl)bis(oxy))bis(1,3-dihydrobenzo[c][1,2]oxaborole)] | 11.1 (≈ 31.7 µM) | 71.4 (≈ 204 µM) | 8.9 (≈ 25.4 µM) | 2.1 (≈ 6 µM) | – |
| Fc1ccc2c(c1)COB2OCCOB1OCc2cc(F)ccc21 [Compound 7, 1,2-bis((5-fluorobenzo[c][1,2]oxaborol-1(3H)-yl)oxy)ethane] | < 0.6 | 8.9 (≈ 27 µM) | 0.6 (≈ 1.82 µM) | 0.2 (≈ 0.606 µM) | MIC [7]: 2.2 µg/mL (≈ 6.67 µM); EC50 [3]: 0.3 µg/mL (≈ 0.909 µM); MIC [3]: 2.2 µg/mL (≈ 6.67 µM); antimicrobial activity against Botrytis cinerea (in words) ([2]; in vitro analysis, b318 says Botrytis cinerea and/or other pathogens): excellent activity; antimicrobial activity against Escherichia coli (colony growth relative to control) [4]: good antimicrobial activity; antimicrobial activity against Botrytis cinerea in grape in vivo analysis [5]: good antimicrobial activity; phytotoxicity in grape in vivo analysis [5]: no phytotoxicity; phytotoxicity in strawberry in vivo analysis [6]: no phytotoxicity; antimicrobial activity against Botrytis cinerea in strawberry in vivo analysis [6]: good antimicrobial activity |
| Fc1ccc2c(c1)COB2OCc1cccc(COB2OCc3cc(F)ccc32)c1 [Compound 15, 1,3-bis(((5-fluorobenzo[c][1,2]oxaborol-1(3H)-yl)oxy)methyl)benzene] | 2.5 (≈ 6.16 µM) | 17.9 (≈ 44.1 µM) | 2.2 (≈ 5.42 µM) | 0.7 (≈ 1.72 µM) | – |
| Fc1ccc2c(c1)COB2OCCCOB1OCc2cc(F)ccc21 [Compound 13, 1,3-bis((5-fluorobenzo[c][1,2]oxaborol-1(3H)-yl)oxy)propane] | 0.8 (≈ 2.33 µM) | 8.9 (≈ 25.9 µM) | 0.3 (≈ 0.872 µM) | 0.1 (≈ 0.291 µM) | antimicrobial activity against Escherichia coli (colony growth relative to control) [4]: good antimicrobial activity; antimicrobial activity against Botrytis cinerea in grape in vivo analysis [5]: good antimicrobial activity; phytotoxicity in grape in vivo analysis [5]: no phytotoxicity; phytotoxicity in strawberry in vivo analysis [6]: no phytotoxicity; antimicrobial activity against Botrytis cinerea in strawberry in vivo analysis [6]: good antimicrobial activity |

Second part, led by results:

| EC50 [1] [µg/mL] | MIC [1] [µg/mL] | MIC [2, 8] [µg/mL] | EC50 [2, 8] [µg/mL] | SMILES | other results |
| --- | --- | --- | --- | --- | --- |
| 1 (≈ 2.92 µM) | 8.9 (≈ 26 µM) | 1.1 (≈ 3.22 µM) | 0.3 (≈ 0.877 µM) | Fc1ccc2c(c1)COB2NCCCNB1OCc2cc(F)ccc21 [Compound 16, N^1,N^3-bis(5-fluorobenzo[c][1,2]oxaborol-1(3H)-yl)propane-1,3-diamine] | – |
| 0.8 (≈ 2.15 µM) | 2.2 (≈ 5.91 µM) | 0.6 (≈ 1.61 µM) | 0.3 (≈ 0.806 µM) | CC(C)(COB1OCc2cc(F)ccc21)COB1OCc2cc(F)ccc21 [Compound 8, 1,1′-((2,2-dimethylpropane-1,3-diyl)bis(oxy))bis(5-fluoro-1,3-dihydrobenzo[c][1,2]oxaborole)] | – |
| 3.3 (≈ 11.3 µM) | 17.9 (≈ 61.3 µM) | – | – | c1ccc2c(c1)COB2NCCNB1OCc2ccccc21 [Compound 5, N^1,N^2-bis(benzo[c][1,2]oxaborol-1(3H)-yl)ethane-1,2-diamine] | – |
| 0.5 (≈ 1.75 µM) | 4.5 (≈ 15.7 µM) | 0.3 (≈ 1.05 µM) | 0.1 (≈ 0.35 µM) | Fc1ccc2c(c1)COB2OB1OCc2cc(F)ccc21 [Compound 20, 1,1′-oxybis(5-fluoro-1,3-dihydrobenzo[c][1,2]oxaborole)] | – |
| 3.1 (≈ 12.4 µM) | 17.9 (≈ 71.6 µM) | 2.2 (≈ 8.8 µM) | 0.8 (≈ 3.2 µM) | c1ccc2c(c1)COB2OB1OCc2ccccc21 [Compound 6, 1,1′-oxybis(1,3-dihydrobenzo[c][1,2]oxaborole)] | – |
